Laboratory results reported in PMC4977194 (Bioorganic & medicinal chemistry letters, 2016).

Legend:
VMAT2 = VMAT2 (Rattus norvegicus, UniProt Q01827); assay: Vesicular [3H]DA uptake assay; type: biochemical; conditions: for further improvement in inhibitory potency at VMAT2 on hydrolysis of the 4-acetoxy groups: relative to acetoxy precursors 4 and 5
SERT = SERT (Rattus norvegicus, UniProt P31652); assay: Synaptosomal [3H]5-HT uptake assay; type: biochemical
Chain of SERT (P31652 whole entry): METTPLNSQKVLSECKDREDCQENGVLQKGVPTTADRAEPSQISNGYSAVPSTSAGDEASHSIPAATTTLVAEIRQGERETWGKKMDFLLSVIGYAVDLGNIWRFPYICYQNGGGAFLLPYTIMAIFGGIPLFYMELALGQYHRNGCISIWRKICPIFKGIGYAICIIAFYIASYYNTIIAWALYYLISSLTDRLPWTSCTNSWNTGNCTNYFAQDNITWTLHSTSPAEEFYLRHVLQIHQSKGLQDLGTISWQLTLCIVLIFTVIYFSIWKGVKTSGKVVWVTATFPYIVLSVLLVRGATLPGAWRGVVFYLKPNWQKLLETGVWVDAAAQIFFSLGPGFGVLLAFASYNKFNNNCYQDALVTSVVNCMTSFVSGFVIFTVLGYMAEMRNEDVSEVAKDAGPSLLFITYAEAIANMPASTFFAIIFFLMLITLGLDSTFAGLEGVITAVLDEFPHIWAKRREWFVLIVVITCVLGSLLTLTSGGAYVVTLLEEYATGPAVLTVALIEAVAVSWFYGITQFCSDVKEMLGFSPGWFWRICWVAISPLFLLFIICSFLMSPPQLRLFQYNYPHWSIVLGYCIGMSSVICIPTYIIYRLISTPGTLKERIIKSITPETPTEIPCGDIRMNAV

Chain of VMAT2 (Q01827 whole entry): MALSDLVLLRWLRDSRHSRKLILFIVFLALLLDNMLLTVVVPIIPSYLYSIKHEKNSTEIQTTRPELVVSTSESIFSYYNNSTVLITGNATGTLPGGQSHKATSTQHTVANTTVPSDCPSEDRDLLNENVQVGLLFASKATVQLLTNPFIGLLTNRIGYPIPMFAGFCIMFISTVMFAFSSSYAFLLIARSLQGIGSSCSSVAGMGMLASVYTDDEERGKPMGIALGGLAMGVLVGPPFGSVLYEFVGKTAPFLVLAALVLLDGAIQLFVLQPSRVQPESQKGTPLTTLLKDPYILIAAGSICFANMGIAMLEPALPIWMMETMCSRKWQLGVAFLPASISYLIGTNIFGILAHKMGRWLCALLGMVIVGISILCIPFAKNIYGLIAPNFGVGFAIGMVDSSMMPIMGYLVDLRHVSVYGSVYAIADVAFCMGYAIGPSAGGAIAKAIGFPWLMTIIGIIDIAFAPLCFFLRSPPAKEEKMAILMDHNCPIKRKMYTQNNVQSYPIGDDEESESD

`CC(=O)Oc1ccc(CC[C@H]2CCC[C@@H](CCc3ccc(OC(C)=O)cc3)N2C)cc1.Cl` [Compound 5] was tested. Which “improved inhibitory potency at VMAT2 relative to 4” value (VMAT2; N-methylation of 4) did it give?
Its value is 3 fold.

Which “further improvement in inhibitory potency at VMAT2 on hydrolysis of the 4-acetoxy groups” value (VMAT2) does the source give for `CN1[C@@H](CCc2ccc(O)cc2)CCC[C@H]1CCc1ccc(O)cc1.Cl` [Compound 6] here?
The value was “about 2 fold”.

Which “further improvement in inhibitory potency at VMAT2 on hydrolysis of the 4-acetoxy groups” value (VMAT2) does the source give for `Cl.Oc1ccc(CC[C@H]2CCC[C@@H](CCc3ccc(O)cc3)N2)cc1` [Compound 7] here?
Its value is “about 2 fold”.

For `Cl.FCCOc1ccc(CC[C@H]2CCC[C@@H](CCc3ccc(OCCF)cc3)N2)cc1` [Compound 13], which “greater affinity for SERT than lobelane” value (SERT) is on record?
The value was 6 fold.

`Cl.OC[C@H](O)CN1[C@@H](CCc2ccc(O)cc2)CCC[C@H]1CCc1ccc(OCCF)cc1` [Compound 16] was tested. Which “greater affinity for SERT than GZ-793A” value (SERT) did it give?
The value was 7 fold.

With `Cl.OC[C@H](O)CN1[C@@H](CCc2ccc(OCCF)cc2)CCC[C@H]1CCc1ccc(OCCF)cc1` [Compound 17] as the compound, how does the “decrease in affinity for SERT when compared to GZ-793A” value (SERT) read?
Its value is 4 fold.
